Measured values taken from patent US8900720B2, “Multi-functional wood preservatives based on a borate/fatty acid combination” (Summerdale, Inc, priority 2010, dated 2014).

Tested on: mold fungi
Experiment: Moldicide assay on treated southern yellow pine stakes (ASTM D4445-91, ASTM D3273-00)
Assay type: cell-based
Conditions: dip-treated stakes, relative to the water control
Description: All moldicide assays were conducted via ASTM standard D4445-91 (1998) and ASTM D3273-00 (1986).
Six groups of southern yellow pine stakes (12 replicates) were dip-treated (30 seconds) with treatments 3-1 through 3-6, inoculated with mold spores, incubated, and examined after 12 weeks (Table 3).
Six groups of southern yellow pine stakes (12 replicates) were dip-treated (30 seconds) with treatments 4-1 through 4-6, inoculated with mold spores, incubated, and examined after 12 weeks.

Structure (SMILES) | moldicide activity (in words)
OB(O)O [Boric acid, boric acid] | no moldicide activity
O.O.O.O.O=BOB1OB(OB=O)OB2OB([O-])OB([O-])OB(O1)O2.[Na+].[Na+] [DOT, disodium octaborate tetrahydrate] | no moldicide activity
